Laboratory results taken from patent EP3553061A1, “NEW INHIBITORS OF BONE RESORPTION” (CENTRE NATIONAL DE LA RECHERCHE SCIENTIFIQUE (CNRS), priority 2018, dated 2019).
“And” between values parts separate entries of the source, which are not always exact repeats. Identical values can stand only once. Like-named read-outs stand apart in the source and are kept apart here.

Experiments:
human Dock5 = target: T1, human Dock5 (Homo sapiens, UniProt Q9H7D0); experiment: Pull down assay of Rac activation by human Dock5 DHR2 in transfected 293T cells; format: cell-based; details: for inhibition at 50 µM / inhibition at 100 µM: HEK-293T; for IC50: 1 hour treatment
T1 construct: plasmid expressing the catalytic DHR2 domain of mouse or human Dock5; expressed in transfected cells; host or cells: 293T cells
T1 sequence (Q9H7D0 1231-1642 limits assumed): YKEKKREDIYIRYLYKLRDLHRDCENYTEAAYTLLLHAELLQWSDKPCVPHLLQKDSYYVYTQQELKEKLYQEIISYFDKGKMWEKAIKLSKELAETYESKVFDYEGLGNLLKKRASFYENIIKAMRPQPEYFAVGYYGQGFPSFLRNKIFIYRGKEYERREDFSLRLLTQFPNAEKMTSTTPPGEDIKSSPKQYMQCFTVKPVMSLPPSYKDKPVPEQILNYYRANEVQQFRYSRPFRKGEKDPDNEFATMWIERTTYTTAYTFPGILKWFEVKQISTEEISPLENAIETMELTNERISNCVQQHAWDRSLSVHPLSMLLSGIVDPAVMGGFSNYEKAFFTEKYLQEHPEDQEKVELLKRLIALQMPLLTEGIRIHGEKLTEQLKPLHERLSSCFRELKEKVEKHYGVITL
Experimental: (§1) Compounds E73, E88 and E78 were tested for their inhibiting effect of the activation of Rac by mouse Dock5 of and for certain human Dock5 according to a screening test using a pull down assay as represented in Figure 1.
Methodology (Figure 1): cells 293T seeded onto 100 mm diameter plates in a DMEM culture medium containing 10% serum in an incubator in 5.5% CO2 humidified atmosphere at 37°C. When they reach the density of 5x10^6 cells per plate, cells are transfected with 8 µg of plasmid expressing the catalytic DHR2 domain of mouse or human Dock5 in order to activate endogenous GTPase Rac. After 24 hours, the cells are lifted using trypsin and are seeded 10^6 per well in 6-well plates of 35 mms in diameter. The following day, the cells are put in contact during one hour with the compound, in a mother solution at 20 mM into 100% DMSO, to a test concentration of 100 µM into 0.5% DMSO in the DMEM medium containing 0.1% of BSA. The basal activation of Rac by Dock5 is measured from the cells treated with 0.5% DMSO. After treatment, the cells are observed under the optical microscope to make sure of the absence of any toxic effect of the compound. If cell suffering is detected, the test is invalidated and the compound is retested at a lower dosage. The cells are then lysed in 100 µl of the pull down buffer (10% glycerol, 50 mm Tris pH 7.4, 100 mM NaCl, 1% IGEPAL® CA-630 (SIGMA I3021), 2 mM MgCl2 supplemented with proteases inhibitors) and the lysate is incubated during one hour with 20 µg of sepharose beads coupled with the fusion protein GST-PAK-CRIB, which binds specifically the activated form of GTPase Rac, which is bound to GTP. After centrifugation and washings, the proteins associated with the beads, including active Rac GTPase, are denatured and loaded on an SDS PAGE gel. […] For each compound tested, the level of active Rac GTPase is quantified using the Image J software and is normalized to the concentration of total protein in the whole cell lysate. The efficiency of the molecule is defined by the level of active Rac after treatment compared to the level of active Rac in the cells treated with DMSO (control). An activity is considered as inhibitory if the level of Rac activation decreases by at least 10%, 20%, in particular at least 30%, 40%, and preferably at least 50% compared to the control treated with DMSO (Table 1).
The same approach was used to test the potency of molecules of the 48ED family, on the activity of human Dock5 DHR2 (Table 2). Table 2: Inhibitory activity of the compounds of the 48ED family on human Dock5 activity.

[1] = target: T2, DHR2 exchange domain of Dock5 (Homo sapiens, UniProt Q9H7D0); experiment: In vitro Rac1 nucleotide exchange (mantGDP fluorescence) with purified recombinant proteins, Dock5; format: biochemical; details: inhibitor 20 and 60 µM
T2 construct: catalyzed by the DHR2 exchange domain of Dock5 or by the Dbl exchange domain of TRIO; made in house; host or cells: E. coli
T2 sequence (Q9H7D0 1231-1642 limits assumed): as above
Experimental: (§2) The effect of the molecules has been tested on the nucleotide exchange reaction by the GTPase Rac1 catalyzed by the DHR2 exchange domain of Dock5 or by the Dbl exchange domain of TRIO, using purified recombinant proteins produced in E. coli bacteria (Vives, Cres et al., 2015).
(§3) The activity of the inhibitors is measured by fluorescence spectroscopy on 96-well plates with a FlexStation 3 fluorimeter, in a reaction volume of 150 µL, without stirring, at a temperature of 26 ° C. Each plate contains 4 inhibitors at two concentrations (20 and 60 µM), 2 GEFs (DOCK5 and TRIO) and includes controls without inhibitor (1% final DMSO). The inhibitors are diluted to DMSO at an intermediate concentration of 2 or 6 mM, ie 1% final DMSO. Rac1-mantGDP (2 µM), DOCK5 or TRIO (0,2 µM) and the inhibitors are mixed immediately before the beginning of measurements. The exchange reaction is triggered by series of 8 wells in parallel by addition of 100 µM of GTP with mixing by pipetting (Flex mode). The kinetics is followed during 800 seconds. All the measurements are made in duplicate on the same plate. The total playing time of a plate is about 80 minutes. The kinetics of exchange are analyzed with a mono-exponential model F = F0 + ΔFe - kt with the KaleidaGraph ™ software, where F0 is the initial fluorescence and k (or kobs) is the exchange rate constant.

[2] = target: T3, Dbl exchange domain of TRIO (Homo sapiens, UniProt O75962); experiment: In vitro Rac1 nucleotide exchange (mantGDP fluorescence) with purified recombinant proteins, TRIO; format: biochemical; details: inhibitor 20 and 60 µM
T3 construct: catalyzed by the DHR2 exchange domain of Dock5 or by the Dbl exchange domain of TRIO; made in house; host or cells: E. coli
Experimental: as §2, §3

ovariectomized mice = experiment: Bone dynamics parameters in ovariectomized mice; format: in vivo, mouse; details: OVX mice
Experimental: The ovariectomized mouse was used as an in vivo model of pathological bone loss. […] Each group contained ten female C57BL/6J mice that were fourteen weeks of age at the beginning of in-life phase of the study. At the beginning of the in-life phase (at study day 0), mice were weighed and their surgical ovariectomy (OVX) and control (SHAM) operations were performed under analgesia and anaesthesia. […] was injected intra peritoneally (i.p.) to OVX animals, 20 mg/kg once (q.d., dose 1) or twice (b.i.d., dose 2) daily for 25 days, in a vehicle solution containing 0.485% carboxymethylcellulose (CMC) and 3% Tween 80. Control mice received the same volume of vehicle. The effects of treatment with reference compound zoledronate (100 μg/kg, subcutaneously, twice a week.) were studied by comparing OVX mice treated with zoledronate and vehicle with OVX control mice treated with vehicle. At study days 21 and 26, bone was labelled with subcutaneous injections of oxytetracycline and calcein green, respectively, in order to enable the analysis of optional dynamic parameters in bone histomorphometry. Blood for serum samples were harvested from saphenous vein at days -1, 13 and 27 of the study for bone dynamics marker dosage.

[3] = cited from earlier work
mouse Dock5 = target: T4, mouse Dock5 (Mus musculus, UniProt B2RY04); experiment: Pull down assay of Rac activation by mouse Dock5 DHR2 in transfected 293T cells; format: cell-based
T4 construct: plasmid expressing the catalytic DHR2 domain of mouse or human Dock5; expressed in transfected cells; host or cells: 293T cells
T4 sequence (B2RY04 1231-1642 limits assumed): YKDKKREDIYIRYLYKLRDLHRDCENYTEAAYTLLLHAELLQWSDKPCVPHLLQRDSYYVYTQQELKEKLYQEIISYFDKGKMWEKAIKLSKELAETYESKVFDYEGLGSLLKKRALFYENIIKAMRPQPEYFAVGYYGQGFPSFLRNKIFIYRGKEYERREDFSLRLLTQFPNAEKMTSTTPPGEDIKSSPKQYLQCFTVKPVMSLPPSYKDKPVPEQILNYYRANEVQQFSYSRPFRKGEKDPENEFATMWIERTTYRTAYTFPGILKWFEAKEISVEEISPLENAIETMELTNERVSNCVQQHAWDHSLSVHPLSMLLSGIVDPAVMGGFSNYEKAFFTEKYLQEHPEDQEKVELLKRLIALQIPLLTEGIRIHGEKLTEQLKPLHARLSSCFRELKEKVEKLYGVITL
Experimental: as §1
Methodology (Figure 1): cells 293T seeded onto 100 mm diameter plates in a DMEM culture medium containing 10% serum in an incubator in 5.5% CO2 humidified atmosphere at 37°C. When they reach the density of 5x10^6 cells per plate, cells are transfected with 8 µg of plasmid expressing the catalytic DHR2 domain of mouse or human Dock5 in order to activate endogenous GTPase Rac. After 24 hours, the cells are lifted using trypsin and are seeded 10^6 per well in 6-well plates of 35 mms in diameter. The following day, the cells are put in contact during one hour with the compound, in a mother solution at 20 mM into 100% DMSO, to a test concentration of 100 µM into 0.5% DMSO in the DMEM medium containing 0.1% of BSA. The basal activation of Rac by Dock5 is measured from the cells treated with 0.5% DMSO. […] If cell suffering is detected, the test is invalidated and the compound is retested at a lower dosage. […] For each compound tested, the level of active Rac GTPase is quantified using the Image J software and is normalized to the concentration of total protein in the whole cell lysate. […]

[4] = Table 3, human Dock5, test concentration 100 µM, 1 hour, replicate values, 100 µM
[5] = 20 mg/kg, i.p., b.i.d., first two weeks of in-life phase, vs OVX vehicle
[6] = 20 mg/kg, i.p., q.d. and b.i.d., study day 28, vs OVX vehicle
[7] = 20 mg/kg, i.p., q.d. and b.i.d, study day 28
[8] = Table 3, human Dock5, test concentration 100 µM, 1 hour, replicate values, read-out: Inhibition
[9] = zoledronate 100 µg/kg, subcutaneously, twice a week, study day 28, vs OVX vehicle

O=S1(=O)N(c2ccccc2)C[C@H](O)[C@]12CCN(Cc1ccc(Cl)cc1)C2 (racemic) [E197, rac-(4S,5R)-7-(4-chlorobenzyl)-4-hydroxy-2-phenyl-1-thia-2,7-diazaspiro[4.4]nonane 1,1-dioxide]
inhibition at 50 µM (human Dock5; Table 3, human Dock5, at 50µM): 80%
Inhibition (human Dock5; [4]): 55% and 90%
IC50 (human Dock5; human Dock5): 36 µM
effect on the nucleotide exchange reaction of Rac1 catalyzed by Dock5 [1]: inhibit Dock 5
effect on the nucleotide exchange reaction of Rac1 catalyzed by TRIO [2]: not TRIO
trabecular separation (Tb.Sp) (ovariectomized mice; 20 mg/kg, i.p., b.i.d., bone histomorphometry, study day 28, vs OVX vehicle): decreased
relative change in serum PINP levels (ovariectomized mice; 20 mg/kg, i.p., b.i.d., entire in-life phase, vs OVX vehicle): decreased
relative change in serum CTX-I levels (ovariectomized mice; [5]): decreased
relative change in serum PINP levels (ovariectomized mice; [5]): decreased
trabecular bone volume fraction (BV/TV) in femoral and tibial metaphyses (ovariectomized mice; 20 mg/kg, i.p., b.i.d., study day 28, vs OVX vehicle): increased
trabecular number (Tb.N) in tibial metaphysis (ovariectomized mice; 20 mg/kg, i.p., b.i.d., µCT, study day 28, vs OVX vehicle): increased
serum levels of bone turnover biomarker osteoclacin (ovariectomized mice; 20 mg/kg, i.p., q.d. and b.i.d., entire in-life phase): did not decreased
cortical bone specific surface (BS/BV) in tibial diaphysis (ovariectomized mice; [6]): decreased
cortical thickness (Ct.Th) in tibial diaphysis (ovariectomized mice; [6]): increased
mineral apposition rate (MAR) in trabecular bone in femoral metaphysis (ovariectomized mice; [7]): did not decreased
mineralizing surface per bone surface (MS/BS) in trabecular bone in femoral metaphysis (ovariectomized mice; [7]): did not decreased
body weight (ovariectomized mice; in-life phase (day 0 to day 28)): did not affect body weight

O=S1(=O)N(c2ccccc2)C[C@H](O)[C@]12CCN(Cc1ccc(Cl)c(Cl)c1)C2 (racemic) [E202, rac-(4S,5R)-7-(3,4-dichlorobenzyl)-4-hydroxy-2-phenyl-1-thia-2,7-diazaspiro[4.4]nonane 1,1-dioxide]
inhibition at 50 µM (human Dock5; Table 3, human Dock5, at 50µM): 95%
Inhibition (human Dock5; Table 3, human Dock5, at 50µM): 90%
IC50 (human Dock5; human Dock5): 29 µM
effect on the nucleotide exchange reaction of Rac1 catalyzed by Dock5 [1]: inhibit Dock 5
effect on the nucleotide exchange reaction of Rac1 catalyzed by TRIO [2]: not TRIO

O=S(=O)(Nc1cc(Cl)cc(Cl)c1)c1ccccc1 [C21, N-(3,5-dichlorophenyl)-benzenesulfonamide]
bone formation ([3]; mice treated daily along 4 weeks): Bone formation is maintained
histological observation of all tissues ([3]; mice): did not reveal any anomaly
development of bone metastases ([3]; mouse): reduces the development of bone metastases
bone resorption ([3]; mouse, postmenopausal osteoporosis, inflammatory and metastasis-induced bone loss models, intravenous or intraperitoneal administration): inhibits effectively the bone resorption

O=S1(=O)N(c2ccccc2)C[C@H](O)[C@]12CCN(Cc1cccc(Cl)c1)C2 [E73]
inhibition at 100 µM (mouse Dock5; HEK-293T, 100 µM, species of Dock5 not given): ~95%
IC50 (mouse Dock5; mouse DHR2 of Dock5): 17 µM
inhibition at 100 µM (human Dock5; Table 1a, test concentration 100 µM, 1 hour, replicate values, Negative = Rac activation does not decrease, read-out: Inhibition Dock5 (%) Human): 70%
Inhibition Dock5 (%) Human (human Dock5; Table 1a, test concentration 100 µM, 1 hour, replicate values, Negative = Rac activation does not decrease, 100 µM): 60% and 55%
Inhibition (human Dock5; Table 2, human Dock5 DHR2, test concentration 100 µM, 1 hour, replicate values, Negative = Rac activation does not decrease, 100 µM): 55% and 95% (3×) and 50% and 90% (2×)
IC50 (human Dock5; human Dock5): 36 µM

O=S1(=O)N(C2CCCCC2)C[C@@H](O)[C@]12CCN(Cc1ccccc1)C2 [E234]
Inhibition (human Dock5; [4]): 85% and 55% and 40% and 60%

O=S1(=O)N(c2cccc(Cl)c2)C[C@H](O)[C@]12CCN(Cc1ccccc1)C2 [E235]
inhibition at 100 µM (human Dock5; [8]): 80%
Inhibition (human Dock5; [4]): 85%

O=S1(=O)N(c2cccc(Cl)c2)C[C@@H](O)[C@]12CCN(Cc1ccccc1)C2 [E236]
inhibition at 50 µM (human Dock5; Table 3, human Dock5, at 50µM): 20%
inhibition at 100 µM (human Dock5; [8]): 70%

O=P(O)(O)C(O)(Cn1ccnc1)P(=O)(O)O [Zoledronate, reference compound]
relative change in serum osteoclacin levels (ovariectomized mice; zoledronate 100 µg/kg, subcutaneously, twice a week, in-life phase, vs OVX vehicle): decreased
mineral apposition rate (MAR) in trabecular bone in femoral metaphysis (ovariectomized mice; [9]): decreased
mineralizing surface per bone surface (MS/BS) in trabecular bone in femoral metaphysis (ovariectomized mice; [9]): decreased
